Test results reported in patent US5436233A, “4-aminoquinazoline derivatives” (Ono Pharmaceutical Co., Ltd., priority 1993, dated 1995).
Structures can show the parent of a compound that is named as a salt.

How the values were obtained:
[1] = biological target: cGMP-PDE (Homo sapiens, UniProt O76074); assay: Inhibitory effect on cGMP-PDE; type: biochemical; details: PDE IC isolated from human platelets; 3H-cGMP substrate 0.2 mM; pH 8.0; DMSO 2.5%
Method: Typically, connective tissue and adventitia were removed and 1-2 units of platelets were suspended in 10 volumes of buffer A (20 mM Tris-HCl, pH 7.5, containing 2 mM magnesium acetate, 1 mM dithiothreitol, and 5 mM Na2EDTA) using a Brinkman polytron. The proteinase inhibitors leupeptin, pepstatin A, and phenylmethyl-sulfonyl fluoride (PMSF) were also included in this buffer (final concentration of 100 nM each). The homogenate was centrifuged at 100,000g for 60 minutes. The supernatant was then removed and filtered through four layers of cheesecloth. The supernatant was applied to a DWAE-Trisacryl M column. The column was washed with several bed volumes of buffer B (20 mM Tris-HCl, pH 7.5, containing 2 mM magnesium acetate, 1 mM dithiothreitol, and proteinase inhibitors) and eluted by two successive linear NaCl gradients (0.05-0.15M, 300 ml total; 0.15-0.40M, 200 ml total). Five milliliter fractions were collected and assayed for cyclic GMP PDE activity.
The concentration of substrate (^3 H-cGMP) was 0.2 mM. Compounds of the present invention were dissolved in dimethyl sulfoxide (DMSO) at a final concentration of 2.5%. This concentration of DMSO inhibited enzyme activity by approximately 10%.

[2] = biological target: T1, TXA2 synthetase (Rattus norvegicus, UniProt P49430); assay: Inhibitory effect on TXA2 synthetase (TXB2 synthesis in A23187-stimulated heparinized whole blood); type: cell-based, Male Wistar rats; details: 37° C, Ca ionophore A23187 30 μM, TXB2 by EIA
T1 construct: whole blood was collected from abdominal aorta; from tissue; host or cells: freshly drawn heparinized whole blood of male Wistar rats
T1 sequence (P49430 1-533): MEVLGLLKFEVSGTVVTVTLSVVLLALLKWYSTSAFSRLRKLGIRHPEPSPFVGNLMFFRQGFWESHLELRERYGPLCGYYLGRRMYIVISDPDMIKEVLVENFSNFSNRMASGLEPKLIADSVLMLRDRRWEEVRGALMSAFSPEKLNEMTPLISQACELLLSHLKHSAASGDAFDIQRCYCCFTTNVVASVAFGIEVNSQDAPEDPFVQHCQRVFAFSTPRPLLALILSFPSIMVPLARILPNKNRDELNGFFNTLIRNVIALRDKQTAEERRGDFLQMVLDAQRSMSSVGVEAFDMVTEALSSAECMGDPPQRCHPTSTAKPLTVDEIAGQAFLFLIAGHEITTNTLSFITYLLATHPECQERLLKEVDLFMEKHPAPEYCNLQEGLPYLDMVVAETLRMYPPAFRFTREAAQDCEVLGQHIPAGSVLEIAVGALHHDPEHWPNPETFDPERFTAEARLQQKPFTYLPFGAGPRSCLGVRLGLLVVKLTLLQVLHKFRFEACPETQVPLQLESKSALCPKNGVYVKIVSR
Method: Male Wistar rats were starved overnight. Five hundreds microliter of heparinized (10 U/mL) whole blood was collected from abdominal aorta using polyethylene syringe (needle: 22 or 26G). The blood freshly drawn from animal was preincubated with 5 μL of test compound at 37° C. Five minutes later, 2.5 μL of 6 mM of Ca ionophore A23187 (final concentration of 30 μM) was added into tube, and incubation mixture was further incubated for 15 min. The reaction was terminated by centrifugation of tubes at 12,000 rpm for 2 min. TXB2 content in the supernatant was determined by EIA as follows.
One milliliter of 0.5M glycine-HCl buffer (pH 3.2) was added to 100 μL of sample. The samples were mixed well and centrifuged at 1,700 G for 10 min at 4° C. The extracted supernatant was applied to a SEP-PAK (registered Trade Mark) C18 cartridge (Waters Assoc.). After washing with 10 mL of distilled water followed by 10 mL each of 15% ethanol and petroleum ether, the sample was eluted with 3 mL of ethyl acetate. The ethyl acetate fraction was evaporated to dryness under gentle N2 stream and the residue was dissolved in EIA buffer (final volume of 1 mL) following the addition of 300 μL of 0.01M NaHCO3 -NaOH buffer (pH 10.0). EIA for TXB2 was carried out according to a legend attached to the kit (Chyman Chemical Co., Inc.). Overall recovery of TXB^2 in this extraction procedure was 90%. […]

Structure (SMILES)	IC50 [1]	IC50 [2]
CN(C)c1ccc(CNc2nc(-c3cccnc3)nc3ccccc23)cc1 [3(o), 4-(4-(N,N-dimethylamino)phenylmethyl)amino-2-(3-pyridyl)quinazoline trihydrochloride]	2400 nM	
c1ccc(CNc2nc(Cn3ccnc3)nc3ccccc23)cc1 [6(b), 4-phenylmethylamino-2-((1-imidazolyl)methyl)quinazoline dihydrochloride]	300 nM	
CN(C)S(=O)(=O)c1ccc2nc(-n3ccnc3)nc(NCc3ccccc3)c2c1 [6(j), 6-dimethylaminosulfonyl-4-phenylmethylamino-2-(1-imidazolyl)quinazoline hydrochloride]	135 nM	
C#Cc1ccc2nc(-n3ccnc3)nc(NCc3ccccc3)c2c1 [18(b), 2-(1-imidazolyl)-4-phenylmethylamino-6-ethynylquinazoline dihydrochloride]	0.53 nM	
C(=C\c1nc(NCc2ccccc2)c2ccccc2n1)/c1cccnc1 [Example 7, 4-phenylmethylamino-2-(2-(3-pyridyl)vinyl)quinazoline]	200 nM	
C#Cc1ccc2nc(-n3ccnc3)nc(NCCOC)c2c1 [Example 18, 6-ethynyl-4-(2-methoxyethyl)amino-2-(1-imidazolyl)quinazoline]	46 nM	2400 nM
